Experimental findings from ChEMBL document CHEMBL1142074, “In vitro activities of cloxyquin (5-chloroquinolin-8-ol) against Mycobacterium tuberculosis” (2007) are described below.

A word on the MIC: it is the lowest concentration that inhibits growth of the organism. Higher therefore signals a less susceptible organism. As a reminder, the MIC50 is an inhibitory concentration at the 50% level, which refers to growth in some studies and to a panel of isolates in others. Broadly, the MIC90 is an inhibitory concentration at the 90% level, which refers to growth in some studies and to a panel of isolates in others. Lower therefore signals greater potency.

≈ marks a conversion by molar mass, not a printed value.

Holding throughout (type): functional
Assay [1] has as its system Mycobacterium tuberculosis. Kind of assay: Antimycobacterial activity against Mycobacterium tuberculosis H37Ra ATCC 25177 by microplate alamar blue assay. Background: The colour change of resazurin is a common sign of viable cells or microbes.
In assay [2] the test system is Mycobacterium tuberculosis. Put plainly: Antimycobacterial activity against Mycobacterium tuberculosis H37Rv ATCC 27294 by microplate alamar blue assay.
Assay [3] concerns Mycobacterium tuberculosis. Kind of assay: Antimycobacterial activity against Mycobacterium tuberculosis isolates from pulmonary tuberculosis patient by microplate alamar blue assay.
Assay [4] has as its system Mycobacterium tuberculosis. Put plainly: Antimycobacterial activity against para-aminosalicylic acid-resistant Mycobacterium tuberculosis H37Rv ATCC 35821 by microplate alamar blue assay.

With `Oc1cccc2cccnc12` [OXYQUINOLINE], in assay [1], the lowest concentration to inhibit growth (MIC) was 0.125 µg/mL (≈ 0.861 µM).
Regarding `Oc1ccc(Cl)c2cccnc12` [CLOXYQUIN], the minimum inhibitory concentration (MIC) in assay [2], in assay [4] and in assay [1] was 0.125 µg/mL (≈ 0.696 µM) in each case. This compound also gave an MIC50 in assay [3] of 0.125 µg/mL (≈ 0.696 µM). Moreover, the MIC90 in assay [3] worked out at 0.25 µg/mL (≈ 1.39 µM).
In assay [1], `Oc1c(Br)cc(Br)c2cccnc12` [BROXYQUINOLINE] gave an MIC of 6.25 µg/mL (≈ 20.6 µM).
Still for that read-out and setting: in the case of `Cc1ccc2c(Cl)cc(Cl)c(O)c2n1` [CHLORQUINALDOL] it was 0.38 µg/mL (≈ 1.67 µM).
In assay [1], `Oc1c(I)cc(Cl)c2cccnc12` [CLIOQUINOL] gave a minimal inhibitory concentration (MIC) of 6.25 µg/mL (≈ 20.5 µM).
